Patent US20130244255A1, “ANTIBODIES DIRECTED TO GPNMB AND USES THEREOF” (priority 2006, published 2013)

Test system: CG56972-expressing cells
Experiment: Internalization of cell surface bound antibodies (flow cytometry)
Assay type: cell-based, human
Details: following incubation with CG56972-expressing cells
Description: Internalization of cell surface bound antibodies was assessed by a modified flow cytometry procedure. […] After washing cells, incubation was shifted to 37° C. for 1 hr to allow internalization of bound antibodies. Cells that remained on ice (total surface bound) or that were incubated at 37° C. […] Labeled cells were analyzed by flow cytometry as described above. The percentage of antibody internalized was determined using the GMRs and the following formula:
Percent internalized=Total surface bound (4° C.)−Total surface bound (37° C.)/Total surface bound (4° C.)×100

**Q.** For “CR011: fully human monoclonal antibody that specifically binds to GPNMB; VH SEQ ID NO: 20, VL SEQ ID NO: 29”, which “internalization (in words)” value is on record?
**A.** internalized
